{
  "source": "patent US12729225B2",
  "about": "“Non-canonical SWI/SNF complex and uses thereof” (Dana-Farber Cancer Institute, Inc., priority 2018, dated 2026)",
  "key": {"[1]": {"tested_on": "SYO-1 synovial sarcoma cells", "assay": "Proliferation curves (cell counts, Vi-CELL XR) in SYO-1 cells", "assay_type": "cell-based, human", "details": "for cell count: three replicates", "procedure": "(§1) HEK-293T, G401, TTC1240, ESX, IMR-90, BJ Fibroblast, CRL7250, and NCIH-1437 cells were grown in DMEM (Gibco®) supplemented with 10% FBS, 1% GlutaMAX™ (Gibco®), and 1% penicillin-streptomycin (Gibco®). ES-2 cells were grown in McCoy's 5A (Gibco®) supplemented with 10% FBS, 1% GlutaMA™ (Gibco®), and 1% penicillin-streptomycin (Gibco®). EoL-1 and MOLM-13 were grown in RPMI (Gibco) supplemented with 10% FBS, 1% GlutaMAX™ (Gibco®), and 1% penicillin-streptomycin (Gibco®). RD were cultured in DMEM (Gibco®) supplemented with 10% FBS. HCT116 were grown in McCoy's 5A (Gibco®) supplemented with 10% FBS. Calu-6 were grown in EMEM (ATCC® 30-2003) supplemented with 10% FBS. SYO-1 was grown in DMEM without sodium pyruvate (Gibco®) supplemented with 10% FBS, 1% GlutaMAX™ (Gibco®), and 1% penicillin-streptomycin (Gibco®).\nShRNA or gene delivery vectors, psPAX2, and pMD2.g were transfected into […] cells at a ratio of 4:3:1 using PEI (Polysciences, Inc.). Media was filtered through 0.4 micron filters 72 h post transfection and lentiviral particles were concentrated at 20,000 rpm for 2.5 h at 4° C. Lentiviral particles were resuspended in 200 μl PBS and cells were transduced using 1:1000 polybrene (Santa Cruz Biotechnology, cat. sc-134220). Two days post-infection, cells were selected with 2 μg/mL puromycin or 10 μg/mL blasticidin.\n(§2) 25,000-40,000 cells were plated per well of 12 well plates, or 50,000-60,000 per 10 cm plate, depending on cell line. Cell counts were performed in biological triplicate using a Vi-CELL™ XR Cell Counter (Beckman Coulter) on days indicated."}, "[2]": {"tested_on": "TTC1240 malignant rhabdoid tumor cells", "assay": "Proliferation curves (cell counts) in TTC1240 cells", "assay_type": "cell-based, human", "details": "for Proliferation curve data for FIG. 6H (TTC1240): three replicates", "procedure": "as §1, §2"}, "G401 MRT cells": {"tested_on": "G401 MRT cells", "assay": "Proliferation curves (cell counts) in G401 cells", "assay_type": "cell-based, human", "details": "for Proliferation curve data for FIG. 5K (G401): three replicates", "procedure": "as §1, §2"}, "[3]": {"tested_on": "ESX epithelioid sarcoma (SMARCB1-intact) cells", "assay": "Proliferation curves (cell counts) in ESX cells", "assay_type": "cell-based, human", "details": "dBRD9 250 nM vs DMSO", "procedure": "as §1, §2"}, "[4]": {"tested_on": "SYO-1 synovial sarcoma cells", "assay": "RNA-seq gene expression profiling in SYO-1 cells", "assay_type": "cell-based, human", "details": "SYO-1, dBRD9 (6 day)", "procedure": "(§3) RNA was collected from 2 million cells per condition, in biological duplicate, using the RNeasy® Mini Kit (QIAGEN) according to manufacturer's protocol.\n(§4) Library preparation and sequencing of ChIP DNA and RNA was performed by the Molecular Biology Core Facilities at the Dana-Farber Cancer Institute (75 bp single end on Illuminia Nextseq 500).\n(§5) RNA-seq data reads were mapped using default parameters to hg19 using STAR (Dobin, et al. (2013) Bioinformatics 29:15-21) version 2.5.2a.\n(§6) RPKM values were calculated using GFOLD version 1.1.4 (Feng et al. (2012) Bioinformatics 28:2782-2788). Unless otherwise noted, log 2 fold change and Bonferri-corrected p values were generated using DESEQ2 v1.16.1, with reads mapped using RSUBREAD (Liao et al. (2013) Nucleic Acids Res. 41:e108) v1.26.1. […] All RNA-seq experiments were performed in biological replicate. Quality control metrics are available in Table 7.\n(§7) The input for Gene Set Enrichment Analysis (GSEA) (Subramanian et al. (2005) Proc. Nat. Acad. Sci. U.S.A 102:15545-15550) was created by calculating the log 2 fold change between the mean RPKM of the replicates in each condition+1. […] GSEA Preranked was run over these files with default settings."}, "[5]": {"tested_on": "CRL7250 human fibroblast cells", "assay": "RNA-seq of SS18-SSX-mediated gene activation in CRL7250 fibroblasts", "assay_type": "cell-based", "details": "CRL7250 fibroblasts expressing V5-SS18-SSX1, with dBRD9", "procedure": "as §3, §4, §5, §6, §7"}, "SMARCA4 [6]": {"tested_on": "SMARCA4", "assay": "ChIP-seq SMARCA4 occupancy in TTC1240 cells (spike-in normalized, DiffBind)", "assay_type": "cell-based, human", "details": "TTC1240, dBRD9 250 nM vs DMSO", "procedure": "(§8) Cells were fixed in 1% formaldehyde (Sigma Aldrich, F8775) for 10 min at 37° C. and quenched with 125 mM glycine for 5 min at 37° C. Cells were subsequently washed with cold PBS and stored at −80° C. until use. 10M cells per ChTP were used for EoL-1, MOLM-13, and Jurkat cell lines, and 5M cells per ChIP were used for SYO-1 and TTC1240 cell lines. Nuclei were extracted and chromatin was sonicated using the adaptive focused acoustics technology with a Covaris sonicator. Sonicated chromatin was used in immunoprecipitation reactions with indicated antibodies (Table 5) overnight followed by capture using Protein G Dynabeads (Thermo Fisher). […]\n(§9) For alignment of ChIP-seq data, Bowtie2, version 2.1.0 (Langmead & Salzberg (2012) Nat. Methods 9:357-359) was used to map reads to the hg19 human reference genome, using the parameter −k l.\nFor spike-in normalization, Drosophila DNA was aligned to the dm3 genome using Bowtie2 version 2.1.0 with the parameter −k l. Duplicated reads were removed using samtools rmdup with the −b option. (SAMtools v1.3.1) As per manufacturer instructions, normalization ratios were calculated using the ratio of the total number of non-redundant mapped reads in each sample in comparison to the sample with the fewest non-redundant mapped reads. […]"}, "SMARCA4 [7]": {"tested_on": "SMARCA4", "assay": "ChIP-seq SMARCA4 occupancy in MOLM-13 cells", "assay_type": "cell-based, human", "details": "MOLM13 (BAF-intact), dBRD9", "procedure": "as §8, with “Fisher). For ChIP-seq using spike-in chromatin, 15 ng of spike-in Drosophila chromatin (Active Motif, cat #530830) was added to each sample with 2 μg of spike-in antibody (Active Motif, cat #61686).” for “Fisher).”\nas §9\nMACS2 (Zhang et al. (2008) Genome Biol. 9:R137) version 2.1.0 was used to call peaks against input with a cutoff of q=0.001. […] For TTC1240 SMARCA4 tracks shown, the bedGraph file values were multiplied by the spike-in normalization ratios calculated as described above."}, "[8]": {"tested_on": "TTC1240 malignant rhabdoid tumor cells", "assay": "RNA-seq gene expression in TTC1240 cells", "assay_type": "cell-based, human", "details": "TTC1240, 7 days of 250 nM dBRD9", "procedure": "as §3, §4, §5, §6\nGenes associated with MRT superenhancers were downloaded from Chun et al. (Chun et al. (2016) Cancer Cell 29:394-406). Differential expression files of genes between MRT and normal tissues were downloaded from Chun et al., genes that were overexpressed in MRT with Bonferroni-adjusted p-value<0.01 were considered overexpressed in MRT."}, "MOLM-13 cells": {"tested_on": "MOLM-13 cells", "assay": "RNA-seq gene expression in MOLM-13 cells", "assay_type": "cell-based, human", "details": "MOLM-13 (BAF-intact), 6 days of dBRD9", "procedure": "as §3, §4, §5, §6"}},
  "note": "Several values for one entry are separate records, joined by “and”; a condition that tells them apart may be missing. Equal entries are not always repeated. Entries after “also recorded” stand apart in the source; their conditions may differ.",
  "data": [
    {"smiles": "COc1cc(-c2cn(C)c(=O)c3cnccc23)cc(OC)c1CN(C)CC(=O)NCCOCCOCCNc1cccc2c1C(=O)N(C1CCC(=O)NC1=O)C2=O", "note": "(centres unmarked) [dBRD9, 2-((2,6-dimethoxy-4-(2-methyl-1-oxo-1,2-dihydro-2,7-naphthyridin-4-yl)benzyl)(methyl)amino)-N-(2-(2-(2-((2-(2,6-dioxopiperidin-3-yl)-1,3-dioxoisoindolin-4-yl)amino)ethoxy)ethoxy)ethyl) acetamide]", "values": [
      {"measurement": "cell count", "setting": "[1]; Day 0, second block", "value": 0.05},
      {"measurement": "cell count", "setting": "[1]; Day 1, first block", "value": "0.03089 and 0.03603 and 0.03282"},
      {"measurement": "cell count", "setting": "[1]; Day 4, first block", "value": "0.1506 and 0.1319 and 0.1377"},
      {"measurement": "cell count", "setting": "[1]; Day 4, second block", "value": "0.171 and 0.18 and 0.216"},
      {"measurement": "cell count", "setting": "[1]; Day 6, first block", "value": "0.2722 and 0.3153 and 0.2555"},
      {"measurement": "cell count", "setting": "[1]; Day 7, second block", "value": "0.36 (2×) and 0.42"},
      {"measurement": "cell count", "setting": "[1]; Day 8, first block", "value": "0.5521 and 0.5701 and 0.5147"},
      {"measurement": "cell count", "setting": "[1]; Day 10, second block", "value": "1.17 and 1.38 and 1.14"},
      {"measurement": "cell count", "setting": "[1]; Day 13, second block", "value": "2.3 and 2.21 and 2.13"},
      {"measurement": "cell proliferation upon dBRD9 treatment", "setting": "[1]; SYO-1, dBRD9 500 nM (FIG. 6F) vs DMSO", "value": "attenuation of cell proliferation; also recorded: proliferative attenuation"},
      {"measurement": "Proliferation curve data for FIG. 6H (TTC1240)", "setting": "[2]; Day 1, first block", "value": "0.01352 and 0.01738 and 0.01416"},
      {"measurement": "Proliferation curve data for FIG. 6H (TTC1240)", "setting": "[2]; Day 1, second block", "value": "0.05469 (2×) and 0.03282"},
      {"measurement": "Proliferation curve data for FIG. 6H (TTC1240)", "setting": "[2]; Day 3, first block", "value": "0.03024 and 0.04118 and 0.0296"},
      {"measurement": "Proliferation curve data for FIG. 6H (TTC1240)", "setting": "[2]; Day 3, second block", "value": "0.2709 and 0.2793 and 0.2619"},
      {"measurement": "Proliferation curve data for FIG. 6H (TTC1240)", "setting": "[2]; Day 5, first block", "value": "0.05791 and 0.06311 and 0.0534"},
      {"measurement": "Proliferation curve data for FIG. 6H (TTC1240)", "setting": "[2]; Day 5, second block", "value": "0.9207 and 0.9419 and 0.9374"},
      {"measurement": "Proliferation curve data for FIG. 6H (TTC1240)", "setting": "[2]; Day 7, first block", "value": "0.1853 and 0.2336 and 0.1628"},
      {"measurement": "Proliferation curve data for FIG. 6H (TTC1240)", "setting": "[2]; Day 7, second block", "value": "2.184 and 2.334 and 2.133"},
      {"measurement": "proliferation upon dBRD9 treatment", "setting": "[2]; TTC1240 (SMARCB1-deficient MRT), dBRD9 250 nM vs DMSO", "value": "reduced proliferation"},
      {"measurement": "Proliferation curve data for FIG. 5K (G401)", "setting": "G401 MRT cells; Day 1, first block", "value": "0.04568 and 0.02188 and 0.02252"},
      {"measurement": "Proliferation curve data for FIG. 5K (G401)", "setting": "G401 MRT cells; Day 1, second block", "value": "0.1114 and 0.1126 and 0.1094"},
      {"measurement": "Proliferation curve data for FIG. 5K (G401)", "setting": "G401 MRT cells; Day 3, first block", "value": "0.1287 (2×) and 0.1558"},
      {"measurement": "Proliferation curve data for FIG. 5K (G401)", "setting": "G401 MRT cells; Day 3, second block", "value": "0.48 and 0.5096 and 0.442"},
      {"measurement": "Proliferation curve data for FIG. 5K (G401)", "setting": "G401 MRT cells; Day 5, first block", "value": "0.453 and 0.5533 and 0.4292"},
      {"measurement": "Proliferation curve data for FIG. 5K (G401)", "setting": "G401 MRT cells; Day 5, second block", "value": "1.005 and 1.058 and 0.9696"},
      {"measurement": "Proliferation curve data for FIG. 5K (G401)", "setting": "G401 MRT cells; Day 7, first block", "value": "0.7669 and 0.9773 and 0.8281"},
      {"measurement": "Proliferation curve data for FIG. 5K (G401)", "setting": "G401 MRT cells; Day 7, second block", "value": "1.468 and 1.621 and 1.556"},
      {"measurement": "proliferation upon dBRD9 treatment", "setting": "G401 MRT cells; G401 (SMARCB1-deficient MRT), dBRD9 250 nM vs DMSO", "value": "reduced proliferation"},
      {"measurement": "reduced proliferation upon dBRD9 treatment", "setting": "[3]", "value": "did not"},
      {"measurement": "expression of genes closest to fusion-dependent sites", "setting": "[4]", "value": "did not change"},
      {"measurement": "SS18-SSX-mediated gene activation", "setting": "[5]", "value": "did not attenuate"},
      {"measurement": "SMARCA4 occupancy (ChIP-seq)", "setting": "SMARCA4 [6]", "value": "significant decrease"},
      {"measurement": "loss in SMARCA4 occupancy (ChIP-seq)", "setting": "SMARCA4 [7]", "value": "did not exhibit similar loss"},
      {"measurement": "expression of JUND, VGF, ID3, HOXC9, CREB3L1", "setting": "[8]", "value": "significantly downregulated"},
      {"measurement": "preferential downregulation of genes enriched for dependencies (CERES)", "setting": "MOLM-13 cells", "value": "did not result in preferential downregulation"}
    ]}
  ]
}
